Tests used:
[1] = target: T1, KCC2 (Homo sapiens, UniProt Q9H2X9); assay: biotinylation, plasma membrane level of KCC2 in HEK-293 cells; format: cell-based; conditions: 15 min
T1 construct: expressed in transfected cells; host or cells: HEK-293 (ATCC CRL-1573)
T1 sequence (Q9H2X9 1-1116 isoform Q9H2X9-2): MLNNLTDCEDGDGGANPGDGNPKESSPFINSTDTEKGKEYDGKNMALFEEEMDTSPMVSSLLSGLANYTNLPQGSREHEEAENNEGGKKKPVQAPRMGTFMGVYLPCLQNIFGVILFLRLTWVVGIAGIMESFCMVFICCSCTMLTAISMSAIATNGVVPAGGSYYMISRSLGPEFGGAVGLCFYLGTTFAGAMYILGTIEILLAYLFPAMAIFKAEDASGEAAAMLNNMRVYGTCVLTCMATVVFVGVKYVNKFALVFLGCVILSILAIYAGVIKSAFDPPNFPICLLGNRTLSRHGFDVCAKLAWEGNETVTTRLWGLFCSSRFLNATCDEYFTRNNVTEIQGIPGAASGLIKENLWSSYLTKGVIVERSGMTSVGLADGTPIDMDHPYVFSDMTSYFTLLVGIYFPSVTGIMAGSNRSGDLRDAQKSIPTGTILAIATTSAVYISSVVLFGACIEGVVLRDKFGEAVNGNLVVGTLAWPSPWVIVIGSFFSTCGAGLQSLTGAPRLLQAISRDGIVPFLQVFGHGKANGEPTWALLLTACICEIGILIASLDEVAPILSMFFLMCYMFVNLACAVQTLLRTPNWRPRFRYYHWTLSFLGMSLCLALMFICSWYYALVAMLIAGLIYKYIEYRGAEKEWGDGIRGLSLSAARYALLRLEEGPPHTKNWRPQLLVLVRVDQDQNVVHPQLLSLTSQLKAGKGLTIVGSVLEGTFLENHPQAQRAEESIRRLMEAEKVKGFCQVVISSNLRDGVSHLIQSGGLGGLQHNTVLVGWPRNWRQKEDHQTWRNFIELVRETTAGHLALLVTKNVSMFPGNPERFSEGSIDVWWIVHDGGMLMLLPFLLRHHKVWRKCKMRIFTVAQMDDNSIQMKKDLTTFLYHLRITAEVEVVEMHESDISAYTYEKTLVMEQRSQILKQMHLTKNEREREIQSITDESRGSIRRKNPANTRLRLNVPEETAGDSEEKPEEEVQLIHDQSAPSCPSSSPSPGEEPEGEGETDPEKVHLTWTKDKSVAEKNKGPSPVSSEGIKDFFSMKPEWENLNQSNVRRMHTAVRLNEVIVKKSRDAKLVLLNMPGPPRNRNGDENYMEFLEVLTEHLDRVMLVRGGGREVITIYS
Method: Cell Culture and biotinylation. HEK-293 cells were purchased from ATCC (CRL-1573) and transfected with human KCC2 and GFP expression plasmids using Lipofectamine 2000. Cells were utilized for experimentation 48-72 h following transfection. Cells were biotinylated at 4° C. using NHS-Biotin. Following lysis and purification on immobilized avidin beads, cell surface and total fractions were subject to immunoblotting as outlined previously (Conway et al., 2017, supra).
The reliability of the biotinylation procedure was assessed via immunoblotting with antibodies against the cytosolic protein actin. Actin was present in the total lysates but was absent from the surface fractions (FIG. 2C).

[2] = tested on: 18-20 Div hippocampal neurons; assay: gramicidin-perforated patch-clamp recording of EGABA in hippocampal neurons; format: cell-based, Sprague Dawley; conditions: 300 nM
Method: Neuronal Cultures. Hippocampal neurons were prepared from Sprague Dawley E18 embryos and plated at 450,000 per dish and maintained at 37° C. in a humidified 5% CO2 incubator for 10-25 days before experimentation (Lee et al., Nat. Neurosci. 14, 736-743 (2011)).
At this developmental stage, GABAAR receptor activation leads to hyperpolarization, a phenomenon critically dependent upon KCC2 (Kontou et al., J Biol Chem, 100364 (2021)).
Neuronal Patch clamp assays. Neuronal cell culture recordings were performed in bath saline at 34° C. For gramicidin perforated-patch experiments, pipettes contained (in mM): 140 KCl and 10 HEPES, pH 7.4 KOH. For whole-cell experiments, pipettes contained (in mM): 115 K-meth-SO4, 30 KCl, 2 Mg-ATP, 4 Na-ATP, 0.4 Na-GTP, and 10 HEPES, pH 7.4 KOH. Bath saline contained the following (in mM): 140 NaCl, 2.5 KCl, 2.5 CaCl2, 2.5 MgCl2, 10 HEPES, and 11 glucose, pH 7.4 NaOH (Kontou et al., 2021, supra). All compound solutions were applied to cells using a three-barreled 700 μm pipe positioned just above the cell (Warner Instruments). […] All voltages from whole-cell experiments were corrected offline using a calculated liquid junction potential value (13.6 mV) in Clampex (Molecular Devices). For gramicidin perforated-patch experiments, intracellular Cl^− values were back-calculated using measured EGABA values and the Nernst equation: […]

[3] = tested on: acute brain slices exposed to 0-Mg; assay: late recurrent discharges in acute brain slices exposed to 0-Mg

C[C@@H]1CN(c2nc3c(c(Nc4ccc(C5CCCCC5)cc4)n2)COC3)CCO1 [Compound A, (R)—N-(4-cyclohexylphenyl)-2-(2-methylmorpholino)-5,7-dihydrofuro[3,4-d]pyrimidin-4-amine]
level of KCC2 on the plasma membrane (surface/total) ([1]; 0.3 μM): 94.5±8.4 % of control | level of KCC2 on the plasma membrane (surface/total) ([1]; 3 μM): 104.7±8.4 % of control | reduction in neuronal Cl− ([2]; 15 min, calculated from EGABA): 2.2 ± 0.6 mM | EGABA after treatment ([2]; at 15 min (from −75±3.1 at 0 min), bumetanide and TTX present): −85.1±4.2 mV | development of late recurrent discharges (LRDs) [3]: reduced
